# Test results taken from patent US8258158B2 (Hoffmann-La Roche Inc., priority 2009, dated 2012).
# pIC50: −log10 of the molar value.
# Target: T1, human HSL (Homo sapiens, UniProt Q05469)
# T1 construct: overlapping PCR to generate a full length human HSL ORF with a 3′-His6 tag; His6 (C); made in house; host or cells: High 5 insect cells (baculovirus, pFast-BAC)
# T1 sequence (Q05469 1-1076): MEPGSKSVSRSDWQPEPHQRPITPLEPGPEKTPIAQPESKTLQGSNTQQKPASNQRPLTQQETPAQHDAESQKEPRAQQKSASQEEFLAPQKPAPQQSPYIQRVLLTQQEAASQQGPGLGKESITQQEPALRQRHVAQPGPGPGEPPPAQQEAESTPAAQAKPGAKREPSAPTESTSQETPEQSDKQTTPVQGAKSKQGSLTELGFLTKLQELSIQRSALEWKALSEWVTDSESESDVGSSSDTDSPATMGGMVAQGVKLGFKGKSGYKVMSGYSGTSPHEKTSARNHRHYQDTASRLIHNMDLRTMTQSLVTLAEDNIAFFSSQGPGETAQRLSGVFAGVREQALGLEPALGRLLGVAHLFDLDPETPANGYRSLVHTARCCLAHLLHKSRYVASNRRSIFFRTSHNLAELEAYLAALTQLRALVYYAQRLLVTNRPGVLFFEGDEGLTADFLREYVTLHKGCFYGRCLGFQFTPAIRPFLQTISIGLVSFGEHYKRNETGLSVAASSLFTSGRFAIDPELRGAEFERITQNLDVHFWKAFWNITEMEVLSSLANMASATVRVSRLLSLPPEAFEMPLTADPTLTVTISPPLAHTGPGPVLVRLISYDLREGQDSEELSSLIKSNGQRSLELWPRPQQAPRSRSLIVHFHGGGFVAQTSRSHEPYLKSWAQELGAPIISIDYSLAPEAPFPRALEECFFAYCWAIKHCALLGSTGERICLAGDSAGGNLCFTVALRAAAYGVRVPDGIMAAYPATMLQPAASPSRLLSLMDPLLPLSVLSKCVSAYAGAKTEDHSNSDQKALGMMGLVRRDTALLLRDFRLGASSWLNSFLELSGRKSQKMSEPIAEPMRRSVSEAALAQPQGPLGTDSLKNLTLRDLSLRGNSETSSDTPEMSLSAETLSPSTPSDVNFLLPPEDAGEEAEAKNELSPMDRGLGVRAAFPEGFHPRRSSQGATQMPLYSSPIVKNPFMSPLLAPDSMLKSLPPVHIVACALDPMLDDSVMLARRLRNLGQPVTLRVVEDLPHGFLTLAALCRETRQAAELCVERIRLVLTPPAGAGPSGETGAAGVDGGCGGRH
# Assay: Human hormone-sensitive lipase (HSL) enzyme inhibition assay (colorimetric, DMPT substrate)
# Type: biochemical
# Details: human full length HSL-His6; 2,3-dimercapto-1-propanol tributyrate substrate; 37° C., 20 minutes; read-out: HSL hum IC50
# Protocol: Production of Human Full Length Hormone Sensitive Lipase-His^6:
# 1) Cloning: cDNA was prepared from commercial human brain polyA+ RNA and used as a template in overlapping PCR to generate a full length human HSL ORF with a 3′-His6 tag. This full length insert was cloned into the pFast-BAC vector and the DNA-sequence of several single clones was verified. DNA from a correct full length clone with the 3′His6 tag was used to transform the E. coli strain DH10BAC. Resulting bacmid DNA was used to generate a titered baculovirus stock for protein generation. The sequence of the encoded HSL conforms to Swissprot entry Q05469, with the additional C-terminal His6-tag.
# 2) Protein purification: Culture: 5.5 L, High 5 cells expressing human full length HSL-His^6, 48 hr., containing 25 μM E-64. Cell count: […], 90% viable. Cells were thawed. On ice, cells were suspended in Base Buffer containing 10% glycerol, 25 mM Tris-Cl, 300 mM NaCl, 10 mM imidazole, 10 mM 2-mercaptoethanol, 2 μg pepstatin/ml, 2 μg leupeptin/ml, 2 μg antipain/ml, pH 8.0 at 4° C. in a final volume of 475 ml with 3.75×10^7 cells/ml. […] was done at 3×30 sec., Lubrol PX was added to 0.2% final concentration followed by stirring for 15 min. at 4° C. and centrifugation at 25 k×g, 60 min., 4° C. Soluble proteins were mixed with 60 ml of pre-washed and equilibrated Ni-NTA Agarose (Qiagen 30210) followed by tumbling end-over-end, 45 min., 4° C., centrifugation 1000 rpm 5 min and letting resin settle 5 min. Supernatant was removed, the resin washed in the centrifuge vessel using 5 volumes of Base Buffer containing 0.2% Lubrol PX. Centrifugation was done again, then the supernatant discarded. The resin was poured onto a 0.8 μm membrane in a disposable filter unit (Nalge 450-0080), and washed with 5 volumes of Base Buffer containing 0.2% Lubrol PX. It was then washed with 30 volumes of Base Buffer containing 60 mM imidazole pH 7.5 at 4° C. The protein was eluated with 5 volumes of 25 mM Tris-Cl, 300 mM NaCl, 200 mM imidazole, 10 mM 2-mercaptoethanol, pH 7.5 at 4° C. by tumbling resin with buffer end-over-end, 30 min., 4° C. The resin was captured on a 0.2 μm membrane disposable filter unit (Millipore SCGP U02 RE) and the eluate collected in the reservoir. The eluate was concentrated using a 30 k MWCO centrifugal filter device (Sartorius Vivascience Vivacell 100, VC1022), to 20 ml. It was then dialyzed overnight at 4° C., two times against 2 L of 10% glycerol, 25 mM Tris-Cl, 300 mM NaCl, 0.2 mM EDTA, 0.2 mM DTT, pH 7.5 at 4° C. The protein was filtered using a 0.22 μm disposable filter unit (Millipore SCGP00525). The protein concentration was calculated from absorbance at 280 nm, using 280=0.67 cm-1 mg-1. Yield was 235 mg, total. The protein was stored at −80° C.
# Human Hormone-Sensitive Lipase (HSL) Enzyme Inhibition Assay:
# HSL enzyme activity was measured by a colorimetric assay using 2,3-dimercapto-1-propanol tributyrate (Aldrich, St. Louis, Mo.) as a substrate. Typically, 1.5 mM 2,3-dimercapto-1-propanol tributyrate (DMPT) in 100 mM MOPS, pH 7.2, 0.2 mg/ml fatty acid-free BSA was prepared by sonication at 4° C. to homogenous suspension. Test compounds (2 mM stock in DMSO) were diluted 3 fold in series in DMSO. Compound solutions were diluted 24 fold in 1.5 mM DMPT containing solution and 18 ul per well was added to 384-well microplates (Corning Costar). Twelve microliters per well of human HSL (15 ug/ml) was added and the reaction mixture was incubated at 37° C. for 20 minutes. Six microliters of 12 mM dithio-bis-(2-nitrobenzoic acid) (DTNB) in DMSO plus 1.2% SDS and 0.6% Triton X-100 were added and the mixture was incubated at room temperature for 15 minutes. Product production was monitored by reading absorbance at 405 nm on an Envision Reader (PerkinElmer Life and Analytical Sciences, Shelton, Conn.).
row,SMILES,pIC50
1,"Cc1ccc(S(=O)(=O)N2CCC(F)(C(=O)Nc3ccc(OC(F)(F)F)cc3)CC2)cc1 [Example 18, 4-Fluoro-1-(toluene-4-sulfonyl)-piperidine-4-carboxylic acid (4-trifluoromethoxy-phenyl)-amide]",6.26
2,"Cc1ccc(S(=O)(=O)N2CCC(F)(C(=O)Nc3ccc(OC(C)C(F)(F)F)cc3)CC2)cc1 (racemic) [Example 32, (rac-4-Fluoro-1-(toluene-4-sulfonyl)-piperidine-4-carboxylic acid [4-(2,2,2-trifluoro-1-methyl-ethoxy)-phenyl]-amide]",6.04
3,"CC(Oc1ccc(NC(=O)C2CCN(C(=O)c3ccccc3Cl)CC2)cc1)C(F)(F)F (racemic) [Example 44, (rac)-1-(2-Chloro-benzoyl)-piperidine-4-carboxylic acid [4-(2,2,2-trifluoro-1-methyl-ethoxy)-phenyl]-amide]",6.21
4,Cc1ccc(S(=O)(=O)N2CCC(CO)(C(=O)Nc3ccc(OC(F)(F)F)cc3)CC2)cc1 [Example 51],6.48
5,"Cc1ccc(S(=O)(=O)N2CCC(F)(C(=O)Nc3ccc(OC(C)C)cc3)CC2)cc1 [Example 19, 4-Fluoro-1-(toluene-4-sulfonyl)-piperidine-4-carboxylic acid (4-isopropoxy-phenyl)-amide]",6.13
6,"Cn1cc(S(=O)(=O)N2CCC(F)(C(=O)Nc3ccc(OC(F)(F)F)cc3)CC2)c(C(F)(F)F)n1 [Example 63, 4-Fluoro-1-(1-methyl-3-trifluoromethyl-1H-pyrazole-4-sulfonyl)-piperidine-4-carboxylic acid (4-trifluoromethoxy-phenyl)-amide]",5.96
7,"CC(Oc1ccc(NC(=O)C2(CO)CCN(S(=O)(=O)c3ccccc3)CC2)cc1)C(F)(F)F (racemic) [Example 27, (rac)-1-Benzenesulfonyl-4-hydroxymethyl-piperidine-4-carboxylic acid [4-(2,2,2-trifluoro-1-methyl-ethoxy)-phenyl]-amide]",6.02

# These reach a higher pIC50. Values come first.
row,pIC50,SMILES
1,6.74,"O=C(Nc1ccc(OC(F)(F)F)cc1)C1(F)CCN(S(=O)(=O)c2ccccc2Cl)CC1 [Example 30, 1-(2-Chloro-benzenesulfonyl)-4-fluoro-piperidine-4-carboxylic acid (4-trifluoromethoxy-phenyl)-amide]"
2,6.92,"Cc1ccc(S(=O)(=O)N2CCC(C(=O)Nc3ccc(OC(F)F)cc3)CC2)cc1 [Example 13, 1-(Toluene-4-sulfonyl)-piperidine-4-carboxylic acid (4-difluoromethoxy-phenyl)-amide]"
3,6.96,"COC[C@@H]1C[C@@H](C(=O)Nc2ccc(OC(F)(F)F)cc2)CCN1S(=O)(=O)c1ccc(C)cc1 (racemic) [Example 23, Racemic Mixture of Example 23a which is (2S,4S)-2-Methoxymethyl-1-(toluene-4-sulfonyl)-piperidine-4-carboxylic acid (4-trifluoromethoxy-phenyl)-amide and Example 23b which is (2R,4R)-2-Methoxymethyl-1-(toluene-4-sulfonyl)-piperidine-4-carboxylic acid (4-trifluoromethoxy-phenyl)-amide]"
4,7.40,"O=C(Nc1ccc(OC(F)(F)F)cc1)C1CCN(S(=O)(=O)c2ccccc2)CC1 [Example 46, 1-Benzenesulfonyl-piperidine-4-carboxylic acid (4-trifluoromethoxy-phenyl)-amide]"
5,7.40,"Cc1ccc(S(=O)(=O)N2CCC(C(=O)N(C)c3ccc(OC(F)(F)F)cc3)CC2)cc1 [Example 16, 1-(Toluene-4-sulfonyl)-piperidine-4-carboxylic acid methyl-(4-trifluoromethoxy-phenyl)-amide]"
6,7.40,"CC(C)Oc1ccc(NC(=O)C2CCN(S(=O)(=O)c3ccccc3Cl)CC2)cc1 [Example 39, 1-(2-Chloro-benzenesulfonyl)-piperidine-4-carboxylic acid (4-isopropoxy-phenyl)-amide]"
